One series in a line: method code SF, from DOI: 10.1002/qsar.19830020303.
Conditions: not given
The compound `CCOC(=O)c1ccc(Cl)nn1` showed a logP of 0.12.

`CN(C)c1ccnnc1` yielded a log partition coefficient (logP) of -0.09.

Compound `Cc1cc(N)nc(C)n1` had a logP of 0.39. On the same count and under the same terms, as for `NS(=O)(=O)c1ccc2ncccc2c1`, the figure is 0.56; as for `CSc1ccc2ccccc2n1`, 3.04.

Turning to `NNC(=O)c1ccc2ncccc2c1`, the logP is 0.35. Same read-out and setting: as for `CC(=O)Nc1ncccn1`, the figure is -0.75.

Compound `NC(=O)c1ccc(Cl)nn1` came in with a logP of 0. Compound `NC(=S)c1cccnc1` yielded a logP of 0.67. Same read-out and setting: as for `Cc1cc(N)ncn1`, the figure is 0.19; as for `CS(=O)(=O)c1ccc2ncccc2c1`, 0.7; as for `CN(C)C(=O)c1cccnc1`, -0.48. Same read-out and setting: as for `NS(=O)(=O)c1cccnc1`, the figure is -0.49; as for `NC(=O)c1ccncc1`, -0.28; as for `NC(=S)c1ncccn1`, -0.34.

Compound `CN(C)c1cccnn1` displayed a log partition coefficient (logP) of 0.29. For `CN(C)c1ccc(Cl)nn1`, the logP worked out at 0.98. Same read-out and setting: as for `Nc1ccc(Cl)nn1`, the figure is 0.35; as for `CC(=O)Nc1ccncc1`, 0.5. In turn, `Cc1cc(NN)ncn1` showed a log partition coefficient (logP) of 0.62. Still for that read-out and setting: as for `COC(=O)c1cnccn1`, the figure is -0.17.

The series is the same for the next values; noted with them: pH 7.4.
With `Oc1cnc2ccccc2c1`, the log distribution coefficient (logD) amounted to 2.08.

Test in another series: not given
Conditions: not given
Regarding `COc1ccnc2c([N+](=O)[O-])cccc12`, the log partition coefficient (logP) was 1.92. Same read-out and setting: as for `c1ccc(-c2ncncn2)cc1`, the figure is 1.93; as for `O=S(=O)(c1ccccc1)c1cccc2cccnc12`, 2.33. As for `c1ccc(Oc2ccccn2)cc1`, the log partition coefficient (logP) is 2.45. In the case of `COC(=O)c1cnc2ccccc2c1`, the logP was found to be 2.25.

Regarding `NC(=O)c1cnc2ccccc2n1`, the logP worked out at 0.98. Still for that read-out and setting: as for `CCOC(=O)c1ccc2ncccc2c1`, the figure is 2.64; as for `Nc1cc2ccccc2nn1`, 1; as for `Nc1ncnc2ccccc12`, 1.28. Same read-out and setting: as for `Nc1nc(-c2ccccc2)c2ccccc2n1`, the figure is 2.95; as for `CC(=O)c1cnc2ccccc2c1`, 1.76. Same read-out and setting: as for `NC(=O)c1cnc2ccccc2c1`, the figure is 1.06; as for `CCCOc1cncc(C)n1`, 2.29; as for `CCOC(=O)c1cc2ccc(CC)cc2nn1`, 2.31. Take `Nc1ccnc2c([N+](=O)[O-])cccc12`: the logP was determined as 1.31.

With `Nc1nncc2ccccc12`, the logP came to 0.82. In turn, `COc1ccc(Cl)nn1` returned a logP of 0.89.

In turn, `Cc1nc(-c2ccccc2)c2ccccc2n1` returned a logP of 3.1. The same measure, in the same setting: as for `CCCCOc1cccnn1`, the figure is 1.8; as for `CC(C)(C)c1ccccn1`, 2.4; as for `CN(C)c1nnc(-c2ccccc2)c2ccccc12`, 3.22. Consider `N#Cc1ccc2ccccc2n1`, for which the logP turned out to be 1.6. The same measure, in the same setting: as for `CN(C)c1ccc2ccccc2n1`, the figure is 2.81; as for `Cc1cccnc1`, 1.19; as for `CSc1ncc2ccccc2n1`, 2.5. On the same count and under the same terms, as for `CC(=O)Nc1ccc2cccnc2c1`, the figure is 1.55; as for `c1ccc(-c2nnco2)cc1`, 1.31. As for `COc1ncnc2ccccc12`, the lipophilicity (logP) was found to be 1.97. Still for that read-out and setting: as for `c1ccc(Nc2ccccn2)cc1`, the figure is 2.75.

The compound `CN(C)c1ccccn1` returned a logP of 1.43. The same measure, in the same setting: as for `CSc1ccccn1`, the figure is 1.71; as for `COc1nnc(OC)c2ccccc12`, 2.22; as for `NNc1ncnc2ccccc12`, 1.67. On the same count and under the same terms, as for `O=C(c1ccccc1)c1ccccn1`, the figure is 1.96; as for `Cc1cccc2c(N)cnnc12`, 1.57; as for `Clc1ccc2cncnc2c1`, 1.74.

`O=Cc1ccc2ccccc2n1` yielded a logP of 2.14. On the same count and under the same terms, as for `c1ccc2c(N3CCCCC3)ncnc2c1`, the figure is 2.92; as for `COc1nc(-c2ccccc2)c2ccccc2n1`, 3.5; as for `CN(C)c1ccc(N(C)C)nn1`, 0.99. On the same count and under the same terms, as for `COc1cc(C)nc2ccccc12`, the figure is 2.81. Same read-out and setting: as for `CSc1nc(C)cc(C)n1`, the figure is 1.86. `COc1cnnc2ccccc12`: the lipophilicity (logP) amounted to 1.41. Same read-out and setting: as for `CN(C)C(=O)c1cnc2ccccc2c1`, the figure is 0.99; as for `Nc1cnnc2ccccc12`, 1.04. Still for that read-out and setting: as for `CC(=O)c1cc2ccccc2nn1`, the figure is 1.44. Same read-out and setting: as for `N#Cc1cnc2ccccc2c1`, the figure is 1.57; as for `Cc1cnnc2cc(Cl)ccc12`, 1.98.

`c1ccc(-c2ncnc3ccccc23)cc1` showed a logP of 2.71. The same measure, in the same setting: as for `O=[N+]([O-])c1cc2ccccc2nn1`, the figure is 0.73. In the case of `Clc1cc2ccccc2nn1`, the logP was found to be 1.57. Same read-out and setting: as for `CNc1nc(-c2ccccc2)c2ccccc2n1`, the figure is 3.58; as for `Brc1cc2ccccc2nn1`, 1.72. Still for that read-out and setting: as for `CSc1ccc(SC)nn1`, the figure is 1.85. Compound `c1ccc2c(NC3CCCC3)ncnc2c1` returned a logP of 2.61. On the same count and under the same terms, as for `Ic1ccc2ccccc2n1`, the figure is 3.04. The same measure, in the same setting: as for `c1ccc(Sc2cccnc2)cc1`, the figure is 3.15.

With `O=CNc1cccc2cccnc12`, the log partition coefficient (logP) came out at 1.8.

Compound `Cc1cnnc2ccc(Cl)cc12` showed a logP of 1.96.

A short description of a further series: method code SF-AS, from DOI: 10.1002/qsar.19830020303.
Conditions: not given
`Cc1cc(C)nc(C)c1` gave a logP of 2.01.

What is called logP is the decadic logarithm of the partition coefficient of the neutral form, usually between octanol and water. Read a low logP as lower lipophilicity. What is called logD is lipophilicity at a set pH, counting ionised and neutral species. High values mean higher lipophilicity, low ones lower lipophilicity.

The values are drawn from the SangsterLogP compilation.
